Target: T1, GST-RIPK1 (recombinant GST-RIPK1 kinase domain (residues 1-327)) (Homo sapiens, UniProt Q13546)
T1 construct: recombinant GST-RIPK1 kinase domain (residues 1-327) enzyme produced from baculovirus-transfected Sf21 cells; host or cells: baculovirus-transfected Sf21 insect cells
T1 sequence (Q13546 1-327): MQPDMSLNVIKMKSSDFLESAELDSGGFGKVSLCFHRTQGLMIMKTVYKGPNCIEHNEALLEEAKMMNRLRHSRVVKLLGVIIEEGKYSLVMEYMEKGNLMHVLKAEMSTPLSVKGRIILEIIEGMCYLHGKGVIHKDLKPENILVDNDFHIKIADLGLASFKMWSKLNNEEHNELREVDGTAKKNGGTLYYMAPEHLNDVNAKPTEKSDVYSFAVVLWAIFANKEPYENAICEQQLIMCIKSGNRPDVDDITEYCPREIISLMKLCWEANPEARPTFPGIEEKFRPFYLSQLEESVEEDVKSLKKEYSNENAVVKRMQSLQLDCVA
Experiment: RIPK1-ADP-Glo Enzymatic Assay
Format: biochemical
Conditions: ten-point titration, top compound concentration of 100000 nM; 25 nM GST-RIPK1, 300 μM ATP, 3 μM dephosphorylated-MBP; 30 min pre-incubation, 150 min reaction
Method in brief: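 GST-RIPK1 kinase domain (residues 1-327, Sf21-expressed), 25 nM, preincubated 30 min with compound, then reacted 150 min with 300 μM ATP and 3 μM dephosphorylated MBP in pH 7.3 Hepes buffer, 1% DMSO. ADP measured by ADP-Glo luminescence; EC50 from ten-point titration (top 100000 nM), four-parameter fit.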

Compound	EC50 [nM]
N#Cc1ccnc(O[C@H]2C[C@@]3(C2)O[C@@H]2CC[C@@H](c4ccc(F)cc4)N2C3=O)c1 [Example 9.28, 2-{[(1r,3R,5′S,7a′R)-5′-(4-fluorophenyl)-3′-oxotetrahydro-3′H-spiro[cyclobutane-1,2′-pyrrolo[2,1-b][1,3]oxazol]-3-yl]oxy}pyridine-4-carbonitrile]	16
O=C1N2C(CC[C@H]2c2cnccn2)OC12CC(OCc1ccc3nc(C(F)(F)F)sc3c1)C2 (stereo partly drawn) [Example 18.97, (5′S)-5′-(pyrazin-2-yl)-3-{[2-(trifluoromethyl)-1,3-benzothiazol-6-yl]methoxy}tetrahydro-3′H-spiro[cyclobutane-1,2′-pyrrolo[2,1-b][1,3]oxazol]-3′-one]	289
Cc1cc2c(O[C@H]3C[C@@]4(C3)O[C@@H]3CC[C@@H](c5cc(F)cc(F)c5)N3C4=O)ncnc2s1 [Example 9.33, (1r,3R,5′S,7a′R)-5′-(3,5-difluorophenyl)-3-[(6-methylthieno[2,3-d]pyrimidin-4-yl)oxy]tetrahydro-3′H-spiro[cyclobutane-1,2′-pyrrolo[2,1-b][1,3]oxazol]-3′-one]	8
O=C1N2[C@@H](CC[C@H]2c2cc(F)cc(F)c2)O[C@]12C[C@H](Oc1cc(Cl)ncn1)C2 [Example 9.3, (5′S,7a′R)-3-((6-chloropyrimidin-4-yl)oxy)-5′-(3,5-difluorophenyl)tetrahydro-3′H-spiro[cyclobutane-1,2′-pyrrolo[2,1-b]oxazol]-3′-one]	10
O=C1N2[C@@H](CC[C@H]2c2cc(F)cc(F)c2)OC12CC(Oc1ccccc1)C2 (single isomer, unassigned) [Example 16.2, ((1r or s),3R,5′S,7a′R)-5′-(3,5-difluorophenyl)-3-phenoxytetrahydro-3′H-spiro[cyclobutane-1,2′-pyrrolo[2,1-b]oxazol]-3′-one]	29
O=C1N2C(CC[C@H]2c2cnccn2)OC12CC(OCc1ccc3nc(C(F)(F)F)cn3c1)C2 (stereo partly drawn) [Example 18.54, (5′S)-5′-(pyrazin-2-yl)-3-{[2-(trifluoromethyl)imidazo[1,2-a]pyridin-6-yl]methoxy}tetrahydro-3′H-spiro[cyclobutane-1,2′-pyrrolo[2,1-b][1,3]oxazol]-3′-one]	159
O=C1N2[C@@H](CC[C@H]2c2cnccn2)OC12CC(Oc1cnccn1)C2 (stereo partly drawn) [Example 9.66, (5′S,7a′R)-5′-(pyrazin-2-yl)-3-[(pyrazin-2-yl)oxy]tetrahydro-3′H-spiro[cyclobutane-1,2′-pyrrolo[2,1-b][1,3]oxazol]-3′-one]	21
CC1(Oc2cc(C#N)ncn2)CC2(C1)O[C@@H]1CC[C@@H](c3cc(F)cc(F)c3)N1C2=O (stereo partly drawn) [Example 5.1, 6-(((5′S,7a′R)-5′-(3,5-difluorophenyl)-3-methyl-3′-oxotetrahydro-3′H-spiro[cyclobutane-1,2′-pyrrolo[2,1-b]oxazol]-3-yl)oxy)pyrimidine-4-carbonitrile]	57
O=C1N2C(CC[C@H]2c2cnccn2)OC12CC(OCc1cnn3cccnc13)C2 (stereo partly drawn) [Example 18.4, (5′S)-5′-(pyrazin-2-yl)-3-[(pyrazolo[1,5-a]pyrimidin-3-yl)methoxy]tetrahydro-3′H-spiro[cyclobutane-1,2′-pyrrolo[2,1-b][1,3]oxazol]-3′-one]	45
O=C1N2[C@@H](CC[C@H]2c2cnccn2)O[C@]12C[C@@H](Oc1ncnn3cccc13)C2 [Example 9.45, (1s,3S,5′S,7a′R)-5′-(pyrazin-2-yl)-3-(pyrrolo[2,1-f][1,2,4]triazin-4-yloxy)tetrahydro-3′H-spiro[cyclobutane-1,2′-pyrrolo[2,1-b]oxazol]-3′-one]	233
N#Cc1cc(O[C@H]2C[C@@]3(C2)O[C@@H]2CC[C@@H](c4ccccc4)N2C3=O)ncn1 [Example 9.17, 6-{[(1r,3R,5′S,7a′R)-3′-oxo-5′-phenyltetrahydro-3′H-spiro[cyclobutane-1,2′-pyrrolo[2,1-b][1,3]oxazol]-3-yl]oxy}pyrimidine-4-carbonitrile]	18
O=C1N2C(CC[C@H]2c2cnccn2)OC12CC(OCc1ccnc3ccnn13)C2 (stereo partly drawn) [Example 18.31, (5′S)-5′-(pyrazin-2-yl)-3-[(pyrazolo[1,5-a]pyrimidin-7-yl)methoxy]tetrahydro-3′H-spiro[cyclobutane-1,2′-pyrrolo[2,1-b][1,3]oxazol]-3′-one]	428
Cc1nnc(-c2ccc(COC3CC4(C3)O[C@@H]3CC[C@@H](c5cnccn5)N3C4=O)cc2)o1 (stereo partly drawn) [Example 22.9, (5′S,7a′R)-3-{[4-(5-methyl-1,3,4-oxadiazol-2-yl)phenyl]methoxy}-5′-(pyrazin-2-yl)tetrahydro-3′H-spiro[cyclobutane-1,2′-pyrrolo[2,1-b][1,3]oxazol]-3′-one]	37
COc1ccc2cc(COC3CC4(C3)OC3CC[C@@H](c5cnccn5)N3C4=O)cc(C)c2n1 (stereo partly drawn) [Example 18.89, (5′S)-3-[(2-methoxy-8-methylquinolin-6-yl)methoxy]-5′-(pyrazin-2-yl)tetrahydro-3′H-spiro[cyclobutane-1,2′-pyrrolo[2,1-b][1,3]oxazol]-3′-one]	238
O=C1N2C(CC[C@H]2c2cnccn2)OC12CC(OCc1cnc3c(c1)CCCC3)C2 (stereo partly drawn) [Example 18.42, (5′S)-5′-(pyrazin-2-yl)-3-[(5,6,7,8-tetrahydroquinolin-3-yl)methoxy]tetrahydro-3′H-spiro[cyclobutane-1,2′-pyrrolo[2,1-b][1,3]oxazol]-3′-one]	110
N#Cc1cc(O[C@H]2C[C@@]3(C2)O[C@@H]2CC[C@@H](c4cc(F)cc(F)c4)N2C3=O)ncn1 [Example 9.2, 6-(((5′S,7a′R)-5′-(3,5-difluorophenyl)-3′-oxotetrahydro-3′H-spiro[cyclobutane-1,2′-pyrrolo[2,1-b]oxazol]-3-yl)oxy)pyrimidine-4-carbonitrile]	16
N#Cc1cc(O[C@H]2C[C@@]3(C2)O[C@@H]2CC[C@@H](c4ccc(F)cn4)N2C3=O)ncn1 [Example 9.47, 6-{[(5′S,7a′R)-5′-(5-fluoropyridin-2-yl)-3′-oxotetrahydro-3′H-spiro[cyclobutane-1,2′-pyrrolo[2,1-b][1,3]oxazol]-3-yl]oxy}pyrimidine-4-carbonitrile]	24
Cc1nc(O[C@H]2C[C@@]3(C2)O[C@@H]2CC[C@@H](c4cc(F)cc(F)c4)N2C3=O)c2cccn2n1 [Example 9.29, (1r,3R,5′S,7a′R)-5′-(3,5-difluorophenyl)-3-[(2-methylpyrrolo[2,1-f][1,2,4]triazin-4-yl)oxy]tetrahydro-3′H-spiro[cyclobutane-1,2′-pyrrolo[2,1-b][1,3]oxazol]-3′-one]	47
O=C1N2[C@@H](CC[C@H]2c2ccc(F)cc2)OC12CC(OCc1ccncc1)C2 (stereo partly drawn) [Example 9.61, (5′S,7a′R)-5′-(4-fluorophenyl)-3-[(pyridin-4-yl)methoxy]tetrahydro-3′H-spiro[cyclobutane-1,2′-pyrrolo[2,1-b][1,3]oxazol]-3′-one]	104
O=C1N2[C@@H](CC[C@H]2c2cc(F)cc(F)c2)OC12CC(Oc1ccnc3c(F)cnn13)C2 (single isomer, unassigned) [Example 9.5]	328
O=C1N2[C@@H](CC[C@H]2c2ccc(F)cc2)OC12CC(Oc1nccn3ccnc13)C2 (stereo partly drawn) [Example 9.58, (5′S,7a′R)-5′-(4-fluorophenyl)-3-[(imidazo[1,2-a]pyrazin-8-yl)oxy]tetrahydro-3′H-spiro[cyclobutane-1,2′-pyrrolo[2,1-b][1,3]oxazol]-3′-one]	467
N#Cc1cc(OC2CC3(C2)O[C@@H]2CC[C@@H](c4cccc(F)c4F)N2C3=O)ncn1 (single isomer, unassigned) [Example 9.41, 6-{[(5′S,7a′R)-5′-(2,3-difluorophenyl)-3′-oxotetrahydro-3′H-spiro[cyclobutane-1,2′-pyrrolo[2,1-b][1,3]oxazol]-3-yl]oxy}pyrimidine-4-carbonitrile]	14
O=C1N2[C@@H](CC[C@H]2c2ccccc2)OC12CC(Oc1cccc(-c3nnco3)c1)C2 (stereo partly drawn) [Example 8.16, (5′S,7a′R)-3-[3-(1,3,4-oxadiazol-2-yl)phenoxy]-5′-phenyltetrahydro-3′H-spiro[cyclobutane-1,2′-pyrrolo[2,1-b][1,3]oxazol]-3′-one]	58
O=C1N2C(CC[C@H]2c2cnccn2)OC12CC(OCc1ccccc1-n1cccn1)C2 (stereo partly drawn) [Example 18.53, (5′S)-5′-(pyrazin-2-yl)-3-{[2-(1H-pyrazol-1-yl)phenyl]methoxy}tetrahydro-3′H-spiro[cyclobutane-1,2′-pyrrolo[2,1-b][1,3]oxazol]-3′-one]	117
O=C1N2C(CC[C@H]2c2cnccn2)OC12CC(OCc1cccc3nccn13)C2 (stereo partly drawn) [Example 18.84, (5′S)-3-[(imidazo[1,2-a]pyridin-5-yl)methoxy]-5′-(pyrazin-2-yl)tetrahydro-3′H-spiro[cyclobutane-1,2′-pyrrolo[2,1-b][1,3]oxazol]-3′-one]	182
O=C1N2C(CC[C@H]2c2cnccn2)OC12CC(OCc1cncc(OCCF)c1)C2 (stereo partly drawn) [Example 18.27, (5′S)-3-{[5-(2-fluoroethoxy)pyridin-3-yl]methoxy}-5′-(pyrazin-2-yl)tetrahydro-3′H-spiro[cyclobutane-1,2′-pyrrolo[2,1-b][1,3]oxazol]-3′-one]	126
